Results reported in patent US12286442B2, “Methods and materials for increasing transcription factor eb polypeptide levels” (University of Pittsburgh—Of the Commonwealth System of …, priority 2019, dated 2025).

How the values were obtained:
[1] = system: TFEB; experiment: High content screen measuring TFEB nuclear accumulation (TFEB nuclear/cytosol ratio) in BEAS-2B cells stably expressing TFEB-EGFP; type: cell-based, human; conditions: 18 hours incubation
How it was run: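 Readout: lowest compound concentration giving a 25% rise in nuclear/cytosol TFEB-GFP ratio, from DAPI-masked nuclear and mask-expanded cytosolic signals. Cells (BEAS-2B, TFEB-EGFP stable, ~2300–2500/well) rested 8 hours, then treated 18 hours with compound serial dilutions in 2% FBS medium before PFA fixation and DAPI staining.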

[2] = system: BEAS-2B cells; experiment: Toxicity: compound concentration needed to induce greater than 50 percent of cell loss; type: cell-based, human; conditions: 18 hours incubation
How it was run: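 Reported value is the concentration giving greater than 50 percent cell loss, grouped into bins (≥25 μM; between 1 and 25 μM; ≤1 μM as "+++"). Measured by high-content imaging of DAPI-stained BEAS-2B TFEB-EGFP cells fixed after 18 h compound exposure.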

SMILES	efficacy (minimal compound concentration needed to increase TFEB nuclear/cytosol ratio by 25%) [1]	toxicity (compound concentration needed to induce greater than 50 percent of cell loss) [2]
Cc1nc2cc(Cl)c(Nc3nc(-c4ccncc4)nc4ccccc34)cc2o1 [Compound 143]	+++ (“+++” equals ≤1 μM)	+ (cell loss of greater than 50 percent at a concentration that equals or is greater than 25 μM was represented as)
Cc1nc2cc(Cl)c(Nc3nc(-c4ccncc4)nc4ccncc34)cc2o1 [Compound 144]	+ (“+” equals >25 μM)	+ (cell loss of greater than 50 percent at a concentration that equals or is greater than 25 μM was represented as)
Cc1nc2cc(Cl)c(Nc3nc(-c4ccncc4)nc4ncccc34)cc2o1 [Compound 145]	+++ (“+++” equals ≤1 μM)	+ (cell loss of greater than 50 percent at a concentration that equals or is greater than 25 μM was represented as)
Cc1nc2ccc(Nc3nc(-c4ccncc4)nc4ncccc34)cc2o1 [Compound 146]	+++ (“+++” equals ≤1 μM)	+ (cell loss of greater than 50 percent at a concentration that equals or is greater than 25 μM was represented as)
CCc1nc2ccc(Nc3nc(-c4ccncc4)nc4ccc(C)cc34)cc2s1 [Compound 147]	++ (“++” equals between ≤25 μM and >1 μM)	+ (cell loss of greater than 50 percent at a concentration that equals or is greater than 25 μM was represented as)
CCc1nc2ccc(Nc3nc(-c4ccncc4)nc4c(C)cccc34)cc2s1 [Compound 148]	+++ (“+++” equals ≤1 μM)	+ (cell loss of greater than 50 percent at a concentration that equals or is greater than 25 μM was represented as)
CCc1nc2ccc(Nc3nc(-c4ccncc4)nc4ccc(OC)cc34)cc2s1 [Compound 149]	++ (“++” equals between ≤25 μM and >1 μM)	++ (cell loss of greater than 50 percent at a concentration less than 25 μM and greater than 1 μM was represented as)
CCc1nc2ccc(Nc3nc(-c4ccncc4)nc4cc(OC)ccc34)cc2s1 [Compound 150]	+++ (“+++” equals ≤1 μM)	++ (cell loss of greater than 50 percent at a concentration less than 25 μM and greater than 1 μM was represented as)
CCc1nc2ccc(Nc3nc(-c4ccncc4)nc4ccc(F)cc34)cc2s1 [Compound 151]	+++ (“+++” equals ≤1 μM)	+ (cell loss of greater than 50 percent at a concentration that equals or is greater than 25 μM was represented as)
COc1cccc2nc(-c3ccncc3)nc(Nc3ccc4nc(C(C)C)sc4c3)c12 [Compound 152]	++ (“++” equals between ≤25 μM and >1 μM)	+ (cell loss of greater than 50 percent at a concentration that equals or is greater than 25 μM was represented as)
COc1cccc2c(Nc3ccc4nc(C(C)C)sc4c3)nc(-c3ccncc3)nc12 [Compound 153]	++ (“++” equals between ≤25 μM and >1 μM)	+ (cell loss of greater than 50 percent at a concentration that equals or is greater than 25 μM was represented as)
Cc1ccc2nc(-c3ccncc3)nc(Nc3ccc4nc(C(C)C)sc4c3)c2c1 [Compound 154]	+++ (“+++” equals ≤1 μM)	+ (cell loss of greater than 50 percent at a concentration that equals or is greater than 25 μM was represented as)
Cc1cccc2c(Nc3ccc4nc(C(C)C)sc4c3)nc(-c3ccncc3)nc12 [Compound 155]	+++ (“+++” equals ≤1 μM)	+ (cell loss of greater than 50 percent at a concentration that equals or is greater than 25 μM was represented as)
Cc1cccc2c(Nc3cc(F)c4[nH]ccc4c3)nc(-c3ccncc3)nc12 [Compound 156]	+++ (“+++” equals ≤1 μM)	+ (cell loss of greater than 50 percent at a concentration that equals or is greater than 25 μM was represented as)
Fc1cc(Nc2nc(-c3ccncc3)nc3ncccc23)cc2cc[nH]c12 [Compound 157]	+++ (“+++” equals ≤1 μM)	++ (cell loss of greater than 50 percent at a concentration less than 25 μM and greater than 1 μM was represented as)
Fc1cccc2c(Nc3cc(F)c4[nH]ccc4c3)nc(-c3ccncc3)nc12 [Compound 158]	+++ (“+++” equals ≤1 μM)	+ (cell loss of greater than 50 percent at a concentration that equals or is greater than 25 μM was represented as)
Cc1ccc(-c2nc(Nc3cccc(F)c3)c3ccccc3n2)cc1 [Compound 159]	+ (“+” equals >25 μM)	+ (cell loss of greater than 50 percent at a concentration that equals or is greater than 25 μM was represented as)
O=[N+]([O-])c1cccc(-c2nc(Nc3cccc(F)c3)c3ccccc3n2)c1 [Compound 161]	+ (“+” equals >25 μM)	+ (cell loss of greater than 50 percent at a concentration that equals or is greater than 25 μM was represented as)
Nc1c(Cl)cc(Nc2nc(-c3ccncc3)nc3ccccc23)cc1Cl [Compound 162]	+ (“+” equals >25 μM)	+ (cell loss of greater than 50 percent at a concentration that equals or is greater than 25 μM was represented as)
COc1ccc(-c2nc(Nc3ccc(C)c(F)c3)c3ccccc3n2)cc1 [Compound 163]	+ (“+” equals >25 μM)	+ (cell loss of greater than 50 percent at a concentration that equals or is greater than 25 μM was represented as)
CCCCNc1nc(-c2ccncc2)nc2ccccc12 [Compound 164]	+ (“+” equals >25 μM)	+ (cell loss of greater than 50 percent at a concentration that equals or is greater than 25 μM was represented as)
c1ccc2c(NC3CC3)nc(-c3ccncc3)nc2c1 [Compound 165]	+ (“+” equals >25 μM)	+ (cell loss of greater than 50 percent at a concentration that equals or is greater than 25 μM was represented as)
CCCN(CCC)c1nc(-c2ccncc2)nc2ccccc12 [Compound 166]	+ (“+” equals >25 μM)	+ (cell loss of greater than 50 percent at a concentration that equals or is greater than 25 μM was represented as)
c1ccc(CCNc2nc(-c3ccncc3)nc3ccccc23)cc1 [Compound 167]	++ (“++” equals between ≤25 μM and >1 μM)	+ (cell loss of greater than 50 percent at a concentration that equals or is greater than 25 μM was represented as)
OCCNc1nc(-c2ccncc2)nc2ccccc12 [Compound 168]	+ (“+” equals >25 μM)	+ (cell loss of greater than 50 percent at a concentration that equals or is greater than 25 μM was represented as)
N#CCNc1nc(-c2ccncc2)nc2ccccc12 [Compound 169]	+ (“+” equals >25 μM)	+ (cell loss of greater than 50 percent at a concentration that equals or is greater than 25 μM was represented as)
c1ccc2c(NC3CCCCC3)nc(-c3ccncc3)nc2c1 [Compound 170]	+ (“+” equals >25 μM)	+ (cell loss of greater than 50 percent at a concentration that equals or is greater than 25 μM was represented as)
c1ccc(CCNc2nc(-c3ccncc3)nc3ccccc23)nc1 [Compound 171]	+ (“+” equals >25 μM)	+ (cell loss of greater than 50 percent at a concentration that equals or is greater than 25 μM was represented as)
CS(=O)(=O)CCCNc1nc(-c2ccncc2)nc2ccccc12 [Compound 172]	+ (“+” equals >25 μM)	+ (cell loss of greater than 50 percent at a concentration that equals or is greater than 25 μM was represented as)
CC(C#N)CN(C)c1nc(-c2ccncc2)nc2ccccc12 (stereo not drawn) [Compound 173]	+ (“+” equals >25 μM)	+ (cell loss of greater than 50 percent at a concentration that equals or is greater than 25 μM was represented as)
